Assay results: patent US20250249056A1, “CANCER THERAPIES COMPRISING A NUCLEAR EXPORT INHIBITOR AND AN ONCOLYTIC VIRUS” (priority 2022, published 2025)

Tested on: Colo205 cells
Format: cell-based, human
Conditions: selinexor-treated nucleus vs MYXV + selinexor-treated nucleus

SMILES: O=C(/C=C\n1cnc(-c2cc(C(F)(F)F)cc(C(F)(F)F)c2)n1)NNc1cnccn1 [selinexor]
- Differential protein expression B2CWG0 m053R: 0.01
- Differential protein expression B2CWG4 m057L: 0.01
- Differential protein expression B2CWG5 m058R: 0.176
- Differential protein expression B2CWG7 m060R: 0.01
- Differential protein expression B2CWG8 m061R: 0.01
- Differential protein expression B2CWH0: 0.069
- Differential protein expression B2CWH1 m064R: 0.211
- Differential protein expression B2CWH3 m066R: 0.01
- Differential protein expression B2CWH6 m069L: 0.01
- Differential protein expression B2CWH8: 0.232
- Differential protein expression B2CWI0: 0.021
- Differential protein expression B2CWI3 m076R: 0.096
- Differential protein expression B2CWI4 m077L: 0.01
- Differential protein expression B2CWI6 m079R: 0.131
- Differential protein expression B2CWI7 m080R: 0.036
- Differential protein expression B2CWJ3: 0.01
- Differential protein expression B2CWJ5: 0.01
- Differential protein expression B2CWJ9 m092L: 0.16
- Differential protein expression B2CWK2 m095L: 0.029
- Differential protein expression B2CWL4: 0.01
- Differential protein expression B2CWL5 m108R: 0.088
- Differential protein expression B2CWL8 m111R: 0.101
- Differential protein expression B2CWM1: 0.083
- Differential protein expression B2CWM2 m115L: 0.077
- Differential protein expression B2CWP6 m139R: 0.04
- Differential protein expression B2CWP9 m142R: 0.01
- Differential protein expression B2CWQ5 m149R: 0.01
- Differential protein expression B2CWQ7: 0.229
- Differential protein expression B2CWR1 m156R: 0.022
- Differential protein expression D2WM37 m012L: 0.058
- Differential protein expression D2WMA0 m030L: 0.057
- Differential protein expression D2WN05 m078R: 0.021
- Differential protein expression D2WN26 m090L: 0.097
- Differential protein expression D2WN93 m151R: 0.255
- Differential protein expression D3W0C4 m130R: 0.01
- Differential protein expression E2CZH7 m088L: 0.01
- Differential protein expression E2CZJ6 m107L: 0.01
- Differential protein expression E2CZJ9 m110L: 0.01
- Differential protein expression E2CZK3 m114R: 0.083
- Differential protein expression E2CZL2 m123R: 0.277
- Differential protein expression E2CZL6 m127L: 0.025
- Differential protein expression E2CZM0 m131R: 0.01
- Differential protein expression E2CZM2 m133R: 0.048
- Differential protein expression E2CZP2 m001R: 0.037
- Differential protein expression E2CZQ3 m009L: 0.132
- Differential protein expression E2CZQ9 m014L: 0.092
- Differential protein expression E2CZR0 m015L: 0.04
- Differential protein expression E2CZR6 m021L: 0.133
- Differential protein expression E2CZV0 m055R: 0.052
- Differential protein expression E2CZV1 m056R: 0.01
- Differential protein expression E2CZV4 m059R: 0.01
- Differential protein expression E2CZW3 m068R: 0.052
- Differential protein expression E2CZW7 m072L: 0.211
- Differential protein expression E2CZY1 m086L: 0.01
- Differential protein expression K4JKC2 m073R: 0.021
- Differential protein expression O00584 RNASET2: 0.01
- Differential protein expression O10625 M-T1: 0.037
- Differential protein expression O55698 M-T4: 0.122
- Differential protein expression O76013 KRT36: 0.01
- Differential protein expression O76015 KRT38: 0.01
- Differential protein expression P01100 FOS: 0.211
- Differential protein expression P05090 APOD: 0.01
- Differential protein expression P07942 LAMB1: 0.128
- Differential protein expression P10909 CLU: 0.01
- Differential protein expression P14209 CD99: 0.01
- Differential protein expression P17066 HSPA6: 0.01
- Differential protein expression P17516 AKR1C4: 0.01
- Differential protein expression P50583 NUDT2: 0.01
- Differential protein expression P68544 PAPS: 0.044
- Differential protein expression P68550: 0.168
- Differential protein expression Q5BJH7 YIF1B: 0.161
- Differential protein expression Q5VVJ2 MYSM1: 0.01
- Differential protein expression Q6SJ93 FAM111B: 0.253
- Differential protein expression Q8IY95 TMEM192: 0.01
- Differential protein expression Q8TB72 PUM2: 0.01
- Differential protein expression Q8TDQ7 GNPDA2: 0.01
- Differential protein expression Q9P000 COMMD9: 0.213
- Differential protein expression Q9PX24 m007L: 0.087
- Differential protein expression Q9PX36 m006L: 0.035
- Differential protein expression Q9PXA3 m004L: 0.122
- Differential protein expression Q9Q8F0 m154L: 0.125
- Differential protein expression Q9Q8F9 m144R: 0.179
- Differential protein expression Q9Q8G2 m140R: 0.165
- Differential protein expression Q9Q8G4 m137R: 0.01
- Differential protein expression Q9Q8G6 m135R: 0.021
- Differential protein expression Q9Q8H2 m129R: 0.119
- Differential protein expression Q9Q8H9 m122R: 0.022
- Differential protein expression Q9Q8I1 m120L: 0.024
- Differential protein expression Q9Q8I4 m117L: 0.027
- Differential protein expression Q9Q8I6 m114R: 0.083
- Differential protein expression Q9Q8J1 m109L: 0.032
- Differential protein expression Q9Q8J4 m106L: 0.01
- Differential protein expression Q9Q8J5 m105L: 0.01
- Differential protein expression Q9Q8J9 m101L: 0.01
- Differential protein expression Q9Q8K1 m099L: 0.03
- Differential protein expression Q9Q8K3 m097R: 0.01
- Differential protein expression Q9Q8K6 m094R: 0.01
- Differential protein expression Q9Q8K7 m093L: 0.039
- Differential protein expression Q9Q8L1 m089L: 0.01
- Differential protein expression Q9Q8L3 m087L: 0.069
- Differential protein expression Q9Q8L8 m082R: 0.037
- Differential protein expression Q9Q8L9 VETFS: 0.087
- Differential protein expression Q9Q8M5 m075R: 0.01
- Differential protein expression Q9Q8M6 m074R: 0.047
- Differential protein expression Q9Q8M9 m071L: 0.232
- Differential protein expression Q9Q8N0 m070R: 0.01
- Differential protein expression Q9Q8N5: 0.069
- Differential protein expression Q9Q8N8 m058R: 0.176
- Differential protein expression Q9Q8P4 m052L: 0.029
- Differential protein expression Q9Q8P7 m049R: 0.051
- Differential protein expression Q9Q8Q1: 0.059
- Differential protein expression Q9Q8Q3 m043L: 0.067
- Differential protein expression Q9Q8Q6 m040L: 0.011
- Differential protein expression Q9Q8Q8 m038L: 0.023
- Differential protein expression Q9Q8R0 m036L: 0.099
- Differential protein expression Q9Q8R4 m032R: 0.01
- Differential protein expression Q9Q8R5 m031R: 0.011
- Differential protein expression Q9Q8S0 m026R: 0.039
- Differential protein expression Q9Q8S2 m020L: 0.191
- Differential protein expression Q9Q8S8 m013L: 0.172
- Differential protein expression Q9Q817 m113R: 0.037
- Differential protein expression Q9UHX3 ADGRE2: 0.01
- Differential protein expression Q9UJ68 MSRA: 0.202
- Differential protein expression Q9YQ03 mt6: 0.031
- Differential protein expression Q68DK2 ZFYVE26: 0.092
- Differential protein expression Q77P93 m003.2L: 0.049
- Differential protein expression Q77PB1 m003.1L: 0.145
- Differential protein expression Q86WV6 STING1: 0.01
- Differential protein expression Q96HD1 CRELD1: 0.01
- Differential protein expression Q96LJ7 DHRS1: 0.01
- Differential protein expression Q12913 PTPRJ: 0.01
- Differential protein expression Q16204 CCDC6: 0.249
- Differential protein expression Q58719 SFT2D3: 0.01
- Differential protein expression Q83604 MF13: 0.058
- Differential protein expression Q83730 m005R: 0.01
- Differential protein expression Q85296: 0.124
- Differential protein expression Q85297: 0.01
